# Measured values taken from US20180161276A1, “TEMPERATURE-RESPONSIVE COMPOSITION, METHOD FOR FABRICATING, AND USE THEREOF” (NATIONAL TSING HUA UNIVERSITY, priority 2016, published 2018).
# Molecular target: hemoglobin (Hb) (Homo sapiens, UniProt P68871+P69905)
# Test: Anti-degradation ability of produced nitric oxide in the presence of hemoglobin
# Type: physicochemical
# Conditions: in the presence of hemoglobin compared to absence of hemoglobin
# Source text: As mentioned above, the half-life of nitric oxide is quite short due to the reaction between nitric oxide and erythrocyte in plasma or ceruloplasmin. Please refer to FIG. 6A and FIG. 6B.
# However, the half-life of nitric oxide, which is produced by using the temperature-responsive composition of the 1st embodiment in the present disclosure in the presence of hemoglobin, only has a degradation of 40% as shown in FIG. 6B. That is, it proves that applying the temperature-responsive composition of the present disclosure can extend the half-life of the produced nitric oxide.
# Sequence of hemoglobin (Hb) (P69905 2-142 limits assumed): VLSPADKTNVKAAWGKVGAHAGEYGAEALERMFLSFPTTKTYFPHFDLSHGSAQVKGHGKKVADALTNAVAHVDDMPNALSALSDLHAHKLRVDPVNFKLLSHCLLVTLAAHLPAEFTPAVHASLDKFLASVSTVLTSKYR
# Sequence of hemoglobin (Hb) (P68871 2-147 limits assumed): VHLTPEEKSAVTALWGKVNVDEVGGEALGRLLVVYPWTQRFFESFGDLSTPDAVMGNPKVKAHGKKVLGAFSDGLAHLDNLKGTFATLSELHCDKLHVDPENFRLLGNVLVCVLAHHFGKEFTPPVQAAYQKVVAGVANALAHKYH
compound,measurement,value
NCCN(CCN)/[N+]([O-])=N/O [diethylenetriaine-NONOate],degradation of the half-life of the produced nitric oxide,85%
